Results reported in US20090022739A1, “MODULATING THE KV1.1 VOLTAGE-GATED POTASSIUM CHANNEL IN T-CELLS FOR REGULATING THE […] AND SECRETION OF TUMOR NECROSIS FACTOR ALPHA (tnf-ALPHA) AND TREATING HUMAN DISEASE OR INJURIES MEDIATED BY […] HIGH OR LOW LEVELS OF TNF-ALPHA” (priority 2005, published 2009).
Like-named read-outs stand apart in the source and are kept apart here.

Columns and labels:
normal human T-cells = format: cell-based
Procedure: Human T-Cells: Normal human T-cells were purified from peripheral blood of healthy donors as described (Levite et al, 2000; Ganor et al, 2003; Levite t al, 1998), and the resulting cell population, containing ≧90% T-cells, was suspended in RPMI medium supplemented with 10% FCS, 1% L-Glutamine and antibiotics (Biological Industries, Bet Haemek, Israel) and maintained at 2×10^6 cells/ml (37° C./5% CO2).
Determination of TNF-α, IFN-γ, IL-10 and IL-4 by ELISA: Freshly-purified normal resting human T-cells (2×10^6/ml) were incubated in 24-well plates (Costar, Corning, N.Y.) and the various channel blockers were added. […] Cytokine levels were measured in supernatants after 24 hours for TNF-α and IFN-γ and after 72 hours for IL-10 and IL-4, by quantitative sandwich ELISA (R&D, Minneapolis, Minn.), according to the manufacturer's instructions. […]
These 12 blockers were selected on the basis of their reported ability to block most types of K^+, Na^+, Ca^2+ and Cl^− channels expressed in T-cells (Deutsch et al, 1986; Lewis et al, 1995; Lewis et al, 1988; Rader et al, 1996; Freedman et al, 1995; Koo et al, 1997; Lin et al, 1993; Ishida et al, 1993; Jensen et al, 1999; Kotturi et al, 2003; Phipps et al, 1996; Verheugen et al, 1997; Levite et al, 2000; Chandy et al, 1984). The levels of TNFα secreted into the culture media were tested 24 hours later by ELISA. For positive control, the cells were exposed to the potent phorbol ester PMA, know to activate T-cells in a non-specific manner. The results are shown in FIG. 1A and represent fold increase ±SD TNF-α secretion tested in 2-3 independent experiments. Each ion channel blocker was examined in at least two independent experiments, and at several concentrations covering its effective range (see Materials and Methods). The numbers in each figure next to each blocker represent the highest molar concentration used. Statistical analysis: *P=0.0001, 0.0005, 0.0011 and 0.0005 vs. untreated for MgTX, KTX, DTX-K and PMA, respectively (Student's t-test).

NF-κB = assay: EMSA for nuclear NF-κB in normal human T-cells; format: cell-based; conditions: 100 nM DTX-K
Procedure: EMSA for Nuclear NF-κB: Nuclear fractions from freshly-isolated normal human T-cells were collected using Nuclear Extract Kit (Active Motif, Carlsbad, Calif.), according to the manufacturer's instructions. NF-κB levels in nuclear fractions were measured using TransAM NF-κB Family Kit (Active Motif), according to the manufacturer's instructions.
In case of the TNF-α gene, the observed importance of NF-κB for the expression of the TNFα gene may depend on the cell type and the segment of the enhancer/promoter analyzed (Siebenlist et al, 1990). On these grounds, we investigated whether block of Kv1.1 channels in normal human T-cells (once again, in the complete absence of any other stimuli) can affect NF-κB. […]
Nuclear extracts were […] for several time periods, of which only 7 min is shown. The results, expressed as OD±SD, reflect the amount of NF-κB bound to nuclear NF-κB-binding sequences, as determined by commercially available EMSA. […]

NF-κB p50 = assay: Immunofluorescent histochemistry for NF-κB p50 nuclear translocation; format: cell-based, human; conditions: 100 nM DTX-K; 7 minutes; FIG. 3C
Procedure: Immunofluorescent Histochemistry for NF-κB: Freshly-isolated normal human T-cells that were pretreated or not with DTX-K (100 nM for 7, 15, 30 and 60 minutes), were pelleted (1200 g, 10 minutes, […]), suspended in PBS at 1×10^6 cells/ml, centrifuged (1200 g, 10 minutes), fixed on glass slide by cytospin (250 μl/slide, 1500 rpm, 5 minutes; Shandon Elliot, London, UK), permeablized (200 μl/slide of a solution containing 100 ml 95% methanol and 3 ml acetic acid glacial), and incubated in a blocking medium (200 μl/slide) containing 10% normal goat serum, 2% BSA, 1% glycine and 0.5% triton X-100. The cells were then stained with a rabbit anti-human NF-κB p50 polyclonal Ab (80 μl of 1:50 dilution for 30 minutes at room temperature; Santa Cruz Biotechnology, Santa Cruz, Calif.). […]
In case of the TNF-α gene, the observed importance of NF-κB for the expression of the TNFα gene may depend on the cell type and the segment of the enhancer/promoter analyzed (Siebenlist et al, 1990). […]
In the experiment the results of which are shown in FIG. 3C, normal human T-cells were either left untreated or treated with 100 nM DTX-K for 7, 15, 30 and 60 minutes (see DTX-K treatment time above each respective column). […] Representative photographs at ×100 magnification are shown for NF-κB p50 green fluorescence (upper panel), nuclei blue fluorescence (middle panel), and overlay of both (lower panel). […]

Kv1.1 = Kv1.1 (Homo sapiens, UniProt Q09470); conditions: Gutman et al, 2003; cited from earlier work
Chain of Kv1.1 (Q09470 whole entry): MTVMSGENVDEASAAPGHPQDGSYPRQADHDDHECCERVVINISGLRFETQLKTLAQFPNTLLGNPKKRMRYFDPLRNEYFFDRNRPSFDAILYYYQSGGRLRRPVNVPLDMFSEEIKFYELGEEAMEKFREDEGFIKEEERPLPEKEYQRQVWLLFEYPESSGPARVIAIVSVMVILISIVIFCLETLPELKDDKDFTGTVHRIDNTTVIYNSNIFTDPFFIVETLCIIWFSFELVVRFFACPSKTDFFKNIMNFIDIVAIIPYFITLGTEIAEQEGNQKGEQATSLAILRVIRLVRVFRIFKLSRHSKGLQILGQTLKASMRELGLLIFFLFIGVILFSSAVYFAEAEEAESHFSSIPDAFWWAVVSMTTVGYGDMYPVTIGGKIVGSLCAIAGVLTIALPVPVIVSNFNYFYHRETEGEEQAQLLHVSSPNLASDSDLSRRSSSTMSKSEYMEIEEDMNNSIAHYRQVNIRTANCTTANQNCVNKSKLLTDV

Question: Which IFN-γ secretion (normal human T-cells; 100 nM DTX-K, 24 hours, FIG. 2B) does the source give for “Dendrotoxin-K (AAKYCKLPLRIGPCKRKIPSFYYKWKAKQCLPFDYSGCGGNANRFKTIEECRRTCVG) [DTX-K]” here?
Answer: not affecting

Question: And the TNFα secretion (normal human T-cells; 100 nM DTX-K, 24 hr, FIG. 2A)?
Answer: elevated

Question: And the IL-10 secretion (normal human T-cells; 100 nM DTX-K, 72 hours, FIG. 2C)?
Answer: not affecting

Question: And the IL-4 secretion (normal human T-cells; 100 nM DTX-K, 72 hours, FIG. 2D)?
Answer: not affecting

Question: What about the “TNFα secretion, time course” value (normal human T-cells; 100 nM DTX-K, after 16 hours, individuals 4 and 5) of the same substance?
Answer: significantly elevated

Question: What about the “TNF-α secretion, time course” value (normal human T-cells; 100 nM DTX-K, after 72 hours, individuals 4 and 5) of the same substance?
Answer: remained significantly high

Question: What about the “additional elevation in TNFα levels beyond TCR-activation alone” value (normal human T-cells; DTX-K either during or after TCR-activation, data not shown) of the same substance?
Answer: did not cause additional elevation

Question: What about the “fold increase in TNFα secretion” value (normal human T-cells; FIG. 1A, 24 hours, DTX-K 100 nM, other blockers at highest concentration used, no other stimulus) of the same substance?
Answer: 33.4 fold increase

Question: What about the “fold increase in TNFα secretion” value (normal human T-cells; FIG. 1B, 24 hour exposure, 100 nM DTX-K) of the same substance?
Answer: 8.7 fold

Question: What about the “fold increase in TNFα secretion” value (normal human T-cells; FIG. 1B, 24 hour exposure, 1 μM DTX-K) of the same substance?
Answer: 39.5 fold

Question: And the “fold increase TNF-α secretion” value (normal human T-cells; individual 1 (FIG. 1C), 24 hours, 100 nM)?
Answer: 22.3 fold

Question: What about the “fold increase TNF-α secretion” value (normal human T-cells; individual 2 (FIG. 1D), 24 hours, 100 nM) of the same substance?
Answer: 8.7 fold

Question: And the “fold increase TNF-α secretion” value (normal human T-cells; individual 3 (FIG. 1E), 24 hours, 100 nM)?
Answer: 49.0 fold

Question: And the “fold increase TNF-α secretion” value (normal human T-cells; individual 4 (FIG. 1F), 24 hours, 100 nM)?
Answer: 34.4 fold

Question: And the “TNF-α secreted to the culture media” value (normal human T-cells; individual 4 (FIG. 1F), 24 hours, 100 nM, untreated 38 pg/ml)?
Answer: 1308 pg/mL

Question: What about the “fold increase TNF-α secretion” value (normal human T-cells; individual 5 (FIG. 1G), 24 hours, 100 nM) of the same substance?
Answer: 2.4 fold

Question: And the “fold increase TNF-α secretion” value (normal human T-cells; individual 6 (FIG. 1H), 24 hours, 100 nM)?
Answer: 2.0 fold

Question: What about the “level of NF-κB present in the nuclear extracts” value (NF-κB; 7 minutes, FIG. 3B) of the same substance?
Answer: significantly augmented

Question: And the “elevation of nuclear NF-κB at later time points” value (NF-κB; several later time points, data not shown)?
Answer: no longer detected

Question: And the “NF-κB p50 staining of the cell nucleus” value (NF-κB p50)?
Answer: clearly positive for NF-κB p50

Question: And the Ki (Kv1.1)?
Answer: 0.016 nM
